# Test results as given in patent US20200172483A1, “HETEROCYCLIC SMALL MOLECULE MODULATORS OF HUMAN STING” (Curadev Pharma Limited, priority 2017, published 2020).
# Where two headings read alike, the source gives them in different places.
# Assays:
# WT/R232 STING protein = target: T1, WT/R232 STING protein (Homo sapiens, UniProt Q86WV6, H232R); assay: Luciferase reporter assay in HEK293T-hSTING-Luciferase cells (R232); type: cell-based; conditions: 20 hr stimulation, EC50 range
# T1 construct: host or cells: HEK293T
# Summary of the method: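 Clonal HEK293T cells stably expressing human STING R232 plus an ISRE/ISG54-driven secreted luciferase reporter, stimulated with compounds for 20 hr. Luciferase in supernatant read by luminescence; activity given as fold-induction over baseline.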
# hSTING (H232) = target: T2, hSTING (H232) (Homo sapiens, UniProt Q86WV6); assay: Luciferase reporter assay in HEK293T-hSTING-Luciferase cells (H232/REF polymorph); type: cell-based; conditions: EC50 range
# T2 construct: host or cells: HEK293T
# Text: (§1) • a) Stable STING expressing cells—Stable HEK293T STING-expressing cell lines were generated using plasmids purchased from Invivogen, CA, USA, that contain STING cDNA cloned into the pUNO-1 vector under hEF1-HTLV promoter and containing the Blasticidin selection cassette. The plasmids hSTING (R232), hSTING (H232), hSTING (HAQ) were directly procured from Invivogen while hSTING (AQ) and hSTING (Q) were derived from hSTING (HAQ) and hSTING (R232) plasmids respectively by using a PCR based site directed mutagenesis method. These vectors were individually transfected into HEK293T cells using Lipofectamine (Invitrogen) and transfected cells were selected under Blasticidin selection. These transfected cells were further subjected to clonal selection using the limiting dilution method to obtain clonally pure populations of HEK cells transfected with each of the above mentioned human STING variants. Only those clones were selected in which ligand independent activation of STING was minimal. • b) Stable Luciferase reporter gene expressing cells—Stable HEK293T Luciferase reporter gene expressing cell lines were generated using pCDNA4 plasmids under an IRF-inducible promoter. This promoter is comprised of five tandem interferon-stimulated response elements (ISRE) fused to an ISG54 minimal promoter. This vector was transfected into HEK293T cells using Lipofectamine (Invitrogen) and transfected cells were selected under Zeocin selection. These transfected cells were further subjected to clonal selection using the limiting dilution method to obtain clonally pure populations of HEK cells transfected the Luciferase reporter construct. Only those clones were selected in which ligand independent induction of luciferase was minimal.
# (§2) 5×10^5 clonally selected HEK293T-hSTING-Luciferase cells were seeded in 384-well plates in growth medium and stimulated with novel compounds. After 20 hr of stimulation supernatant were removed and secretary reporter gene activity were measured using the Quanti-Luc detection system (Invivogen) on a Spectramax i3X luminometer.
# (§3) The 5 major polymorphisms of human STING are shown in FIG. 1, with their prevalence in human populations indicated.
# hSTING (HAQ) = target: T3, hSTING (HAQ) (Homo sapiens, UniProt Q86WV6, G230A/H232R/R293Q/R71H); assay: Luciferase reporter assay in HEK293T-hSTING-Luciferase cells (HAQ polymorph); type: cell-based; conditions: EC50 range
# T3 construct: host or cells: HEK293T
# Text: as §1, §2, §3
# IRF pathway = assay: Reporter gene expression assay for IRF axis in THP1-Dual cells (secreted Lucia luciferase); type: cell-based, human; conditions: 20 hr stimulation, QUANTI-Luc, EC50 range, read-out: THP-IRF activity
# Description: (§4) THP1-Dual™ cells (Invivogen) were derived from the human THP-1 monocyte cell line by stable integration of two inducible reporter constructs. As a result, THP1-Dual™ cells allow the simultaneous study of the NF-κB pathway, by monitoring the activity of secreted SEAP, and the IRF pathway, by assessing the activity of a secreted luciferase (Lucia). […] THP1-Dual™ cells were seeded in 384-well plates in growth medium and stimulated with novel compounds. After 20 hr of stimulation supernatant were removed and reporter proteins were readily measured in the cell culture supernatant using QUANTI-Blue™ (Invivogen), a SEAP detection reagent, and QUANTI-Luc™ (Invivogen), a luciferase detection reagent on a Spectramax i3X luminometer. EC50 value ranges for exemplary compounds tested in the above assay are given.
# NF-κB pathway = assay: Reporter gene expression assay for NFκB axis in THP1-Dual cells (secreted SEAP); type: cell-based, human; conditions: 20 hr stimulation, QUANTI-Blue SEAP, EC50 range, read-out: THP-NFKB activity
# Description: as §4
# T1 sequence (Q86WV6 whole entry H232R): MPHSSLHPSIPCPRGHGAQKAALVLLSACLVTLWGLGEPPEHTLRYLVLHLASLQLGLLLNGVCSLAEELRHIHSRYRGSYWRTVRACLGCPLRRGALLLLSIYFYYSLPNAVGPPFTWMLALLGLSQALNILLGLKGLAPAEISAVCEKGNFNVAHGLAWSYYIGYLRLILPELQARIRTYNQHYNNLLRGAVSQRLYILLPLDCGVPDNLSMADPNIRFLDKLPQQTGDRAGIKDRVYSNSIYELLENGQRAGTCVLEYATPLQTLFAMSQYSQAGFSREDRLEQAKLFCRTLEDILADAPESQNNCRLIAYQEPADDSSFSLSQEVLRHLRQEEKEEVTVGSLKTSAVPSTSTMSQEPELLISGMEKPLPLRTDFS
# T3 sequence (Q86WV6 whole entry R71H/G230A/H232R/R293Q): as the sequence (Q86WV6 whole entry H232R) above, with R71H, G230A, R293Q counted along it
# T2 sequence (Q86WV6 whole entry): as the sequence (Q86WV6 whole entry H232R) above, with R232H counted along it
SMILES,EC50 (WT/R232 STING protein) [µM],EC50 (hSTING (H232)) [µM],EC50 (hSTING (HAQ)) [µM],"EC50 (IRF pathway; Homo sapiens, THP1-Dual, 20 h) [µM]","EC50 (NF-κB pathway; Homo sapiens, THP1-Dual, 20 h) [µM]",EC50 (IRF pathway) [µM],EC50 (NF-κB pathway) [µM]
"CC1(C)C(=O)N(Cc2c(F)cccc2Cl)c2cc(C(=O)NCc3c(F)cc(F)cc3F)ccc21 [Example 2, 1-(2-chloro-6-fluorobenzyl)-3,3-dimethyl-2-oxo-N-(2,4,6-trifluorobenzyl)indoline-6-carboxamide]",≤ 1,≤ 1,≤ 1,1 to 10,1 to 10,,
"Cc1cccc(CNC(=O)c2ccc3c(c2)N(Cc2cc(F)cc(F)c2)C(=O)C3(C)C)c1 [Example 4, 1-(3,5-difluorobenzyl)-3,3-dimethyl-N-(3-methylbenzyl)-2-oxoindoline-6-carboxamide]",1 to 10,1 to 10,1 to 10,> 10,> 10,,
"CC1(C)C(=O)N(Cc2cc(F)cc(F)c2)c2cc(C(=O)NCc3c(F)cc(F)cc3F)ccc21 [Example 5, 1-(3,5-difluorobenzyl)-3,3-dimethyl-2-oxo-N-(2,4,6-trifluorobenzyl)indoline-6-carboxamide]",≤ 1,≤ 1,≤ 1,1 to 10,1 to 10,,
"CC1(C)C(=O)N(Cc2ccccc2F)c2cc(C(=O)NCc3c(F)cc(F)cc3F)ccc21 [Example 6, 1-(2-fluorobenzyl)-3,3-dimethyl-2-oxo-N-(2,4,6-trifluorobenzyl)indoline-6-carboxamide]",≤ 1,≤ 1,≤ 1,1 to 10,1 to 10,,
"Cc1cccc(CNC(=O)c2ccc3c(c2)N(Cc2c(F)cccc2Cl)C(=O)C3(C)C)c1 [Example 8, 1-(2-chloro-6-fluorobenzyl)-3,3-dimethyl-N-(3-methylbenzyl)-2-oxoindoline-6-carboxamide]",≤ 1,1 to 10,1 to 10,> 10,1 to 10,,
"CC1(C)C(=O)N(Cc2ccccc2)c2cc(C(=O)NCc3c(F)cc(F)cc3F)ccc21 [Example 11, 1-benzyl-3,3-dimethyl-2-oxo-N-(2,4,6-trifluorobenzyl)indoline-6-carboxamide]",≤ 1,1 to 10,1 to 10,> 10,1 to 10,,
"CC1(C)C(=O)N(Cc2c(F)cccc2Cl)c2cc(C(=O)NCc3cccc(F)c3)ccc21 [Example 12, 1-(2-chloro-6-fluorobenzyl)-N-(3-fluorobenzyl)-3,3-dimethyl-2-oxoindoline-6-carboxamide]",≤ 1,1 to 10,1 to 10,> 10,> 10,,
"Cc1ccc(CNC(=O)c2ccc3c(c2)N(Cc2c(F)cccc2Cl)C(=O)C3(C)C)o1 [Example 13, 1-(2-chloro-6-fluorobenzyl)-3,3-dimethyl-N-((5-methylfuran-2-yl)methyl)-2-oxoindoline-6-carboxamide]",≤ 1,1 to 10,1 to 10,> 10,> 10,,
"CC1(C)C(=O)N(Cc2cccc(F)c2)c2cc(C(=O)NCc3c(F)cc(F)cc3F)ccc21 [Example 14, 1-(3-fluorobenzyl)-3,3-dimethyl-2-oxo-N-(2,4,6-trifluorobenzyl)indoline-6-carboxamide]",≤ 1,1 to 10,1 to 10,1 to 10,1 to 10,,
"Cc1ccc(CNC(=O)c2ccc3c(c2)N(Cc2cc(F)cc(F)c2)C(=O)C3(C)C)o1 [Example 16, 1-(3,5-difluorobenzyl)-3,3-dimethyl-N-((5-methylfuran-2-yl)methyl)-2-oxoindoline-6-carboxamide]",1 to 10,1 to 10,1 to 10,> 10,> 10,,
"Cc1cccc(CN2C(=O)C(C)(C)c3ccc(C(=O)NCc4c(F)cc(F)cc4F)cc32)c1 [Example 18, 3,3-dimethyl-1-(3-methylbenzyl)-2-oxo-N-(2,4,6-trifluorobenzyl)indoline-6-carboxamide]",≤ 1,1 to 10,1 to 10,> 10,1 to 10,,
"CC1(C#N)C(=O)N(Cc2cc(F)cc(F)c2)c2cc(C(=O)NCc3c(F)cc(F)cc3F)ccc21 (stereo not drawn) [Example 163, 3-cyano-1-(3,5-difluorobenzyl)-3-methyl-2-oxo-N-(2,4,6-trifluorobenzyl)indoline-6-carboxamide]",,,,,,1 to 10,1 to 10
"CC1(C#N)C(=O)N(Cc2cc(F)cc(F)c2)c2cc(C(=O)NCc3c(F)cc(F)cc3F)ccc21 (stereo not drawn) [Example 167, 3-cyano-1-(3,5-difluorobenzyl)-3-methyl-2-oxo-N-(2,4,6-trifluorobenzyl)indoline-6-carboxamide]",,,,,,1 to 10,1 to 10
"CC1(C#N)C(=O)N(Cc2cc(F)cc(F)c2)c2cc(C(=O)NCc3c(F)cc(F)cc3F)ccc21 (stereo not drawn) [Example 168, 3-cyano-1-(3,5-difluorobenzyl)-3-methyl-2-oxo-N-(2,4,6-trifluorobenzyl)indoline-6-carboxamide]",,,,,,> 10,> 10
"Cc1ccc(CNC(=O)c2ccc3c(n2)N(Cc2c(C)cccc2F)C(=O)C3(C)C)o1 [Example 195, 1-(2-fluoro-6-methylbenzyl)-3,3-dimethyl-N-((5-methylfuran-2-yl)methyl)-2-oxo-2,3-dihydro-1H-pyrrolo[2,3-b]pyridine-6-carboxamide]",1 to 10,,,,,,
"Cc1ccc(CNC(=O)c2cnc3c(c2)N(Cc2c(C)cccc2F)C(=O)C3(C)C)o1 [Example 196, 1-(2-fluoro-6-methylbenzyl)-3,3-dimethyl-N-((5-methylfuran-2-yl)methyl)-2-oxo-2,3-dihydro-1H-pyrrolo[3,2-b]pyridine-6-carboxamide]",> 10,,,,,,
"Cc1cccc(F)c1CN1C(=O)C(C)(C)c2ncc(C(=O)NCc3ccc(F)cc3)cc21 [Example 197, 1-(2-fluoro-6-methylbenzyl)-N-(4-fluorobenzyl)-3,3-dimethyl-2-oxo-2,3-dihydro-1H-pyrrolo[3,2-b]pyridine-6-carboxamide]",> 10,,,,,,
"CC1(C)C(=O)N(Cc2cc(F)cc(F)c2)c2cc(C(=O)NCc3ccc(F)cc3)cnc21 [Example 198, 1-(3,5-difluorobenzyl)-N-(4-fluorobenzyl)-3,3-dimethyl-2-oxo-2,3-dihydro-1H-pyrrolo[3,2-b]pyridine-6-carboxamide]",1 to 10,,,,,,
"CC1(C)C(=O)N(Cc2cc(F)cc(F)c2)c2cc(C(=O)NCc3ccc(F)cc3F)cnc21 [Example 199, N-(2,4-difluorobenzyl)-1-(3,5-difluorobenzyl)-3,3-dimethyl-2-oxo-2,3-dihydro-1H-pyrrolo[3,2-b]pyridine-6-carboxamide]",1 to 10,,,,,,
"O=C(NCc1ccco1)c1ccc2oc(=O)n(Cc3ccccc3F)c2c1 [Example 200, 3-(2-Fluorobenzyl)-N-(furan-2-ylmethyl)-2-oxo-2,3-dihydrobenzo[d]oxazole-5-carboxamide]",> 10,,,,,,
"O=C(NCc1ccco1)c1ccc2sc(=O)n(Cc3c(F)cccc3Cl)c2c1 [Example 201, 3-(2-chloro-6-fluorobenzyl)-N-(furan-2-ylmethyl)-2-oxo-2,3-dihydrobenzo[d]thiazole-5-carboxamide]",> 10,,,,,,
"Cn1c(=O)n(Cc2ccccc2Cl)c2cc(C(=O)NCc3ccco3)ccc21 [Example 202, 3-(2-chlorobenzyl)-N-(furan-2-ylmethyl)-1-methyl-2-oxo-2,3-dihydro-1H-benzo[d]imidazole-5-carboxamide]",> 10,,,,,,
